In US11505558B1, “Antiviral heterocyclic compounds” (Enanta Pharmaceuticals, Inc., priority 2019, dated 2022):

The compounds below were run on genotype A, "Long" strain RSV (assay: RSV-A assay (CPE, ATPlite readout in Hep-2 cells)). Conditions: human respiratory syncytial virus, HEp-2, Hep-2 cells, genotype A "Long" strain RSV, MOI 0.1; read-out: Human RSV-A (“Long” strain) EC50.
Assay type: cell-based
Method in brief: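 Protection from RSV-induced cytopathic effect, measured as ATPlite luminescence after 5 days, gave EC50 values. Assay used genotype A Long strain at MOI 0.1 on Hep-2 cells seeded at 8,000/well in DMEM growth media with 10% FBS; compounds tested as 2-fold dilutions in duplicate.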

SMILES	EC50 [nM]
C[C@]1(C(=O)N2CC(O)C2)COc2c1cc([C@@](O)(CNC(=O)c1cc(OC3CC3)c3ncccc3c1)C(F)(F)F)nc2-c1ccc(F)cc1 [Example 470]	> 200
C[C@@H](O)COc1ccc(C(=O)NC[C@](O)(c2cc3c(c(-c4ccc(F)cc4)n2)OC[C@]3(F)C(N)=O)C(F)(F)F)cc1OC1CC1 [Example 674]	> 200
C[C@]1(C(N)=O)COc2c1cc([C@@](O)(CNC(=O)c1ccc3ncccc3c1Cl)C(F)(F)F)nc2-c1ccc(F)cc1 [Example 240]	> 200
C[C@]1(C(N)=O)COc2c1cc([C@@](O)(CNC(=O)c1ccc(OC3CC3)c(-c3ccc(C(F)(F)F)nc3)c1)C(F)(F)F)nc2-c1ccc(F)cc1 [Example 118]	> 200
NC(=O)C1(F)COc2c1cc([C@@](O)(CNC(=O)c1cc(OC3CC3)c3ncccc3c1)C(F)(F)F)nc2-c1ccc(F)cc1 (some centres unmarked) [Example 665]	> 200
Cc1ncccc1-c1cc(C(=O)NC[C@](O)(c2cc3c(c(-c4ccc(F)cc4)n2)OC[C@]3(C)C(N)=O)C(F)(F)F)ccc1OC1CC1 [Example 97]	> 200
COc1cc(C(=O)NC[C@](O)(c2cc3c(c(-c4ccc(F)c(Cl)c4)n2)OC[C@]3(C)C(N)=O)C2CC2)cc2cc(C)cnc12 [Example 258]	< 200
C[C@]1(C(N)=O)COc2c1cc([C@@](O)(CNC(=O)c1ccc3nc(C(F)(F)F)sc3c1)C(F)(F)F)nc2-c1ccc(F)cc1 [Example 314]	< 200
C[C@]1(C(=O)NCCC2(O)CC2)COc2c1cc([C@@](O)(CNC(=O)c1cc(OC3CC3)c3ncccc3c1)C(F)(F)F)nc2-c1ccc(F)cc1 [Example 491]	< 200
COc1cc(C(=O)NC[C@](O)(c2cc3c(c(-c4cn(-c5ccc(F)cc5)nn4)n2)OC[C@]3(C)C(N)=O)C(F)(F)F)ccc1OC1CC1 [Example 517]	> 200
COc1ccc2[nH]c(C(=O)NC[C@](O)(c3cc4c(c(-c5ccc(F)cc5)n3)OC[C@]4(C)C(N)=O)C(F)(F)F)cc2c1 [Example 598]	< 200
C[C@]1(C(N)=O)COc2c1cc([C@@](O)(CNC(=O)c1cc3c(Cl)cccc3[nH]1)C(F)(F)F)nc2-c1ccc(F)cc1 [Example 602]	> 200
Cc1ncc(-c2ccc(C(=O)NC[C@](O)(c3cc4c(c(-c5ccc(F)cc5)n3)OC[C@]4(C)C(N)=O)C(F)(F)F)cc2OC2CC2)cn1 [Example 164]	> 200
C[C@]1(C(N)=O)COc2c1cc([C@@](O)(CNC(=O)c1ccc(-c3cocn3)c(OC3CC3)c1)C(F)(F)F)nc2-c1ccc(F)cc1 [Example 198]	< 200
COc1cc(C(=O)NC[C@](O)(c2cc3c(c(-c4ccc(F)cc4)n2)OC[C@]3(C)C(N)=O)C(F)(F)F)ccc1OCCO [Example 11]	< 200
C[C@]1(C(=O)NCC2(O)CC2)COc2c1cc([C@@](O)(CNC(=O)c1cc(OC3CC3)c3ncccc3c1)C(F)(F)F)nc2-c1ccc(F)cc1 [Example 489]	< 200
C[C@]1(C(N)=O)COc2c1cc([C@@](O)(CNC(=O)c1ccc3ncccc3n1)C(F)(F)F)nc2-c1ccc(F)cc1 [Example 238]	> 200
C[C@]1(C(N)=O)COc2c1cc([C@@](O)(CNC(=O)c1ccc3c(c1)OCC(=O)N3)C(F)(F)F)nc2-c1ccc(F)cc1 [Example 606]	> 200
Cn1cc2cc(C(=O)NC[C@](O)(c3cc4c(c(-c5ccc(F)c(Cl)c5)n3)OC[C@]4(C)C(N)=O)C(F)(F)F)ccc2n1 [Example 639]	< 200
Cc1cnc(-c2ccc(C(=O)NC[C@](O)(c3cc4c(c(-c5ccc(F)cc5)n3)OC[C@]4(C)C(N)=O)C(F)(F)F)cc2OC2CC2)cn1 [Example 167]	> 200
C#Cc1nc([C@@](O)(CNC(=O)c2ccc(OC3CC3)c(OC)c2)C(F)(F)F)cc2c1OC[C@]2(C)C(N)=O [Example 509]	> 200
COc1cc(C(=O)NCC(O)(c2cc3c(c(-c4ccc(F)cc4)n2)OC[C@]3(C)C(=O)O)C(F)(F)F)ccc1OCCO (some centres unmarked) [Example 13]	> 200
C[C@](F)(CNC(=O)c1cc(OC2CC2)c2ncccc2c1)c1cc2c(c(-c3ccc(F)cc3)n1)OC[C@]2(C)C(N)=O [Example 545]	> 200
C[C@]1(CNCC2CC2)COc2c1cc([C@@](O)(CNC(=O)c1ccc(OC(F)F)c(OCC3CC3)c1)C(F)(F)F)nc2-c1ccc(F)cc1 [Example 33]	> 200
COc1ncc(-c2ccc(C(=O)NC[C@](O)(c3cc4c(c(-c5ccc(F)cc5)n3)OC[C@]4(C)C(N)=O)C(F)(F)F)cc2OC2CC2)s1 [Example 177]	> 200
COc1cc(C(=O)NC[C@](C)(O)c2cc3c(c(-c4ccc(F)cc4)n2)OC[C@]3(C)C(N)=O)ccc1OC[C@@H](C)O [Example 264]	< 200
C[C@]1(C(N)=O)COc2c1cc([C@@](O)(CNC(=O)c1cc(Oc3ccccn3)c3ncccc3c1)C(F)(F)F)nc2-c1ccc(F)cc1 [Example 386]	> 200
C[C@]1(C(N)=O)COc2c1cc([C@@](O)(CNC(=O)c1ccc(OC3CC3)c(F)c1)C(F)(F)F)nc2-c1ccc(F)cc1 [Example 72]	< 200

Other lines, results leading:

EC50 [nM]	SMILES
< 200	Cc1cc2cc(C(=O)NC[C@](O)(c3cc4c(c(-c5ccc(F)cc5)n3)OC[C@]4(C)C(N)=O)C(F)(F)F)cc(NC(=O)NCC(C)(C)O)c2nc1C [Example 661]
> 200	CC(C)(O)CNC(=O)COc1cc(C(=O)NC[C@](O)(c2cc3c(c(-c4ccc(F)cc4)n2)OC[C@]3(C)C(N)=O)C(F)(F)F)cc2cccnc12 [Example 377]
< 200	C[C@]1(C(N)=O)COc2c1cc([C@@](O)(CNC(=O)c1cc(F)c3nc(N)sc3c1)C(F)(F)F)nc2-c1ccc(F)cc1 [Example 443]
< 200	Cc1cnc2c(OC3CC3)cc(C(=O)NC[C@](O)(c3cc4c(c(-c5ccc(F)cc5)n3)OC[C@]4(C)C(N)=O)C(F)(F)F)cc2c1 [Example 263]
> 200	CC(C)(O)c1ccc2cc(C(=O)NC[C@](O)(c3cc4c(c(-c5ccc(F)cc5)n3)OC[C@]4(C)C(N)=O)C(F)(F)F)cc(OC3CC3)c2n1 [Example 407]
< 200	C[C@]1(C(N)=O)COc2c1cc([C@@](O)(CNC(=O)c1cc(Nc3ncc(F)cn3)c3ncccc3c1)C(F)(F)F)nc2-c1ccc(F)cc1 [Example 349]
< 200	COc1ccc(C(=O)NC[C@](O)(c2cc3c(c(-c4ccc(F)cc4)n2)OC[C@]3(C)C(N)=O)C(F)(F)F)cc1Cl [Example 330]
> 200	C[C@]1(C(N)=O)COc2c1cc([C@@](O)(CNC(=O)c1cc(OCC(=O)NC[C@H](O)CO)c3ncccc3c1)C(F)(F)F)nc2-c1ccc(F)cc1 [Example 378]
> 200	C[C@]1(C(N)=O)COc2c1cc([C@@](O)(CNC(=O)c1cc(NS(=O)(=O)C3CC3)c3ncccc3c1)C(F)(F)F)nc2-c1ccc(F)cc1 [Example 395]
> 200	C[C@]1(C(N)=O)COc2c1cc([C@@](O)(CNC(=O)c1cc(NC(=O)c3cnn[nH]3)c3ncccc3c1)C(F)(F)F)nc2-c1ccc(F)cc1 [Example 404]
< 200	Cn1cc2cc(C(=O)NC[C@](O)(c3cc4c(c(-c5ccc(F)cc5)n3)OC[C@]4(C)C(N)=O)C(F)(F)F)cc(F)c2n1 [Example 654]
< 200	C[C@]1(C(N)=O)COc2c1cc([C@@](O)(CNC(=O)c1ccc3ncc(C(F)(F)F)cc3c1)C(F)(F)F)nc2-c1ccc(F)cc1 [Example 651]
< 200	C[C@]1(C(N)=O)COc2c1cc([C@@](O)(CNC(=O)c1cc(NC(=O)C3CC3)c3ncccc3c1)C(F)(F)F)nc2-c1ccc(F)cc1 [Example 392]
< 200	COc1cc(C(=O)NC[C@](O)(c2cc3c(c(-c4ccc(F)cc4)n2)OC[C@]3(C)C(N)=O)C(F)(F)F)ccc1OCC(C)(C)O [Example 647]
> 200	C[C@]1(C(N)=O)COc2c1cc([C@@](O)(CNC(=O)c1ccc3ncc(=O)[nH]c3c1)C(F)(F)F)nc2-c1ccc(F)cc1 [Example 327]
< 200	CNc1cc(C(=O)NC[C@](O)(c2cc3c(c(-c4ccc(F)cc4)n2)OC[C@]3(C)C(N)=O)C(F)(F)F)cc2cccnc12 [Example 385]
< 200	Cc1cnc2c(NC(=O)C(F)(F)F)cc(C(=O)NC[C@](O)(c3cc4c(c(-c5ccc(F)cc5)n3)OC[C@]4(C)C(N)=O)C(F)(F)F)cc2c1 [Example 554]
> 200	C[C@]1(C(N)=O)COc2c1cc([C@@](O)(CNC(=O)c1cc(NC(=O)[C@H]3CCN3)c3ncccc3c1)C(F)(F)F)nc2-c1ccc(F)cc1 [Example 399]
> 200	Cn1cnc2cc(C(=O)NC[C@](O)(c3cc4c(c(-c5ccc(F)cc5)n3)OC[C@]4(C)C(N)=O)C(F)(F)F)ccc21 [Example 333]
< 200	CC(C)(O)CNC(=O)[C@@]1(C)COc2c1cc([C@@](O)(CNC(=O)c1cc(Cl)c3ncccc3c1)C(F)(F)F)nc2-c1ccc(F)cc1 [Example 496]
> 200	COc1cncc(C(=O)NC[C@](O)(c2cc3c(c(-c4ccc(F)cc4)n2)OC[C@]3(C)C(N)=O)C(F)(F)F)c1 [Example 305]
> 200	C[C@]1(C(N)=O)COc2c1cc([C@@](O)(CNC(=O)c1ccc3cccnc3c1)C(F)(F)F)nc2-c1ccc(F)cc1 [Example 233]
< 200	COc1cc(C(=O)NC[C@](O)(c2cc3c(c(-c4ccc(F)c(C)c4)n2)OC[C@]3(C)C(=O)NCC(C)(C)O)C(F)(F)F)cc2cc(C)cnc12 [Example 503]
> 200	C[C@]1(C(N)=O)COc2c1cc([C@@](O)(CNC(=O)c1cc(NC(=O)[C@@H]3CCN3)c3ncccc3c1)C(F)(F)F)nc2-c1ccc(F)cc1 [Example 400]
< 200	C[C@]1(C(N)=O)COc2c1cc([C@@](O)(CNC(=O)c1ccc3ncncc3c1)C(F)(F)F)nc2-c1ccc(F)cc1 [Example 248]
< 200	Cc1n[nH]c2ccc(C(=O)NC[C@](O)(c3cc4c(c(-c5ccc(F)cc5)n3)OC[C@]4(C)C(N)=O)C(F)(F)F)cc12 [Example 658]
< 200	Cn1cc2cc(C(=O)NC[C@](O)(c3cc4c(c(-c5ccc(F)cc5)n3)OC[C@]4(C)C(N)=O)C(F)(F)F)ccc2n1 [Example 637]
> 200	C[C@]1(C(N)=O)COc2c1cc([C@@](O)(CNC(=O)c1nc3cccnc3[nH]1)C(F)(F)F)nc2-c1ccc(F)cc1 [Example 302]
